Key:
[1] = tested on: porcine pancreatic lipase; experiment: In vitro hydrolysis of prodrugs by incubation with porcine pancreatic lipase; format: in vitro ADME; settings: 37° C.; for hydrolysis of prodrug to its monoglyceride form: simulated intestinal micellar solution, 0-180 min
Description: To provide for higher throughput of experiments, unless otherwise stated, in vitro hydrolysis of compounds will generally be performed via incubation with porcine pancreatic lipase. This provides a more reproducible source of pancreatic enzymes, facilitates enhanced experimental throughput, and is also a greater challenge than collected rat enzymes (since enzyme activity in rat intestinal fluid is low). Briefly, pancreatic lipase solution was prepared prior to the hydrolysis experiment by dispersion of 1 g porcine pancreatin in 5 ml of lipolysis buffer and 16.9 μL of 0.5 M NaOH. The suspension was mixed well and centrifuged at 3500 rpm for 15 minutes at 5° C. to provide a supernatant. An amount of 1000 mL of lipolysis buffer was prepared with 0.474 g of tris-maleate (2 mM), 0.206 g of CaCl2.H2O (1.4 mM) and 8.775 g of NaCl (150 mM) adjusted with NaOH to pH 6.5. To assess the potential for prodrug hydrolysis in the intestine, 20 μL of prodrug solution (1 mg/mL dissolved in acetonitrile), 900 μL of simulated intestinal micellar solution [prepared with 0.783 g of NaTDC (3 mM) and 0.291 g of phosphatidylcholine (0.75 mM) in 500 mL lipolysis buffer] and 100 μL of enzyme solution were incubated at 37° C. 20 μL samples of the incubation solution were taken at 0, 5, 10, 15, 30, 60, 90, 120 and 180 minutes post incubation and added to 180 μL of MeCN to stop lipolysis. The mixture was vortexed and centrifuged at 5000 rpm for 5 minutes to precipitate proteins prior to analysis. The supernatant was analyzed by HPLC-MS for residual compound concentrations, and the potential products of compound hydrolysis analyzed.
The data for prodrug compounds I-1 and I-2 are shown in FIG. 8 and FIG. 9, respectively. […] The monoglycerides were then converted at different rates to an acid intermediate and/or free parent ALLO. An acid intermediate was not observed for prodrug I-2. The acid intermediate of prodrug I-1 is believed to have the following structure, based on HPLC-MS data: […]

[2] = tested on: rat plasma supplemented with lipoprotein lipase (LPL); experiment: In vitro hydrolysis of prodrugs in rat plasma supplemented with lipoprotein lipase; format: in vitro ADME; settings: 37° C.; for hydrolysis of prodrug to its monoglyceride form: 0-180 min
Description: (§1) In order to probe the release of free drug from TG prodrugs in the systemic circulation, prodrugs are incubated with plasma (rat, mouse, dog, pig or human) supplemented with lipoprotein lipase (LPL, 200 IU/ml). LPL is a key enzyme required for the hydrolysis of lipoprotein associated TG in the systemic circulation and is therefore expected to be a key contributor to lipolysis of the re-esterified drug-TG construct in plasma, largely via liberation of fatty acids in the sn-1 and the sn-3 position of the TG-mimetic, prior to drug release from the 2′ position via esterase hydrolysis. […] is tethered to the luminal surface of vascular endothelial cells under physiological conditions. In the current in vitro studies, plasma is therefore supplemented with LPL to better reflect the in vivo situation.
(§2) To start hydrolysis, 10 μl of LPL solution (10,000 IU/ml) was added to a mixture of 10 μl of prodrug solution (1 mg/ml dissolved in acetonitrile) and 500 μl of blank plasma. The mixture was incubated at 37° C. Samples (20 μl) of the incubation solution were taken at 0, 5, 15, 30, 60, 90, 120 and 180 minutes post-incubation and added to 180 μl of MeCN to stop lipolysis. The mixture was vortexed and centrifuged at 4500×g for 5 minutes to precipitate proteins prior to analysis. The supernatant was analyzed by HPLC-MS/MS for the potential products (MG form, acid form, and free drug) of prodrug hydrolysis.
(§3) The in vitro hydrolysis profile of selected prodrug compounds was determined in rat, dog, and/or human plasma supplemented with LPL. The data for prodrug compound I-1 in rat and dog plasma are shown in FIG. 10 and FIG. 11, respectively. The data for prodrug compound I-2 in rat, dog, and human plasma are shown in FIG. 12, FIG. 13, and FIG. 14, respectively. […] The monoglycerides were then converted at different rates to an acid intermediate and/or free parent ALLO. An acid intermediate was not observed for prodrug I-2. The acid intermediate of prodrug I-1 is believed to have the following structure, based on HPLC-MS data: […]

[3] = tested on: dog plasma supplemented with lipoprotein lipase (LPL); experiment: In vitro hydrolysis of prodrugs in dog plasma supplemented with lipoprotein lipase; format: in vitro ADME; settings: 37° C.; for hydrolysis of prodrug to its monoglyceride form: 0-180 min
Description: as §1, §2, §3

[4] = tested on: human plasma supplemented with lipoprotein lipase (LPL); experiment: In vitro hydrolysis of prodrugs in human plasma supplemented with lipoprotein lipase; format: in vitro ADME; settings: 37° C.
Description: as §1
To start hydrolysis, 10 μl of LPL solution (10,000 IU/ml) was added to a mixture of 10 μl of prodrug solution (1 mg/ml dissolved in acetonitrile) and 500 μl of blank plasma. The mixture was incubated at 37° C. […] The supernatant was analyzed by HPLC-MS/MS for the potential products (MG form, acid form, and free drug) of prodrug hydrolysis.
The in vitro hydrolysis profile of selected prodrug compounds was determined in rat, dog, and/or human plasma supplemented with LPL. […]

[5] = background statement; cited from earlier work
[6] = Rat pharmacokinetic studies: plasma allopregnanolone after oral prodrug or ALLO, and after IV ALLO; format: in vivo, male Sprague-Dawley rats; settings: plasma Allo after oral gavage to rats; doses normalized to 2 mg/kg equivalent ALLO; mean±SD (n≥3) or mean±range (n=2)
Description: In order to assess the oral bioavailability of test compounds, pharmacokinetic studies were conducted using the following procedure. The day before drug administration, male Sprague-Dawley rats (240-320 g) were anesthetized and the carotid artery was cannulated. The rats were then allowed to regain consciousness and fasted overnight prior to the commencement of experiments with free access to water. The next morning, formulations containing parent compounds or prodrugs were administered via oral gavage or via the jugular vein cannula, and blood samples were collected from the carotid artery cannula from −5 min up to 24 h post dosing. During the blood sample collection period the rats had free access to water but remained fasted for a further 8 h following drug administration. In these allopregnanolone (ALLO) related studies, the blood samples were centrifuged at 4500×g for 5 min to separate plasma. Plasma samples were stored at −20° C. prior to assay by HPLC-MS-MS. The whole blood or plasma samples were assayed for free drug (i.e. non-glyceride associated drug) and were not hydrolized prior to assay (as was the case with the lymph samples).
FIG. 3 illustrates dose-normalized ALLO plasma concentrations following oral gavage of ALLO related formulations to conscious, carotid artery-cannulated male SD rats. The ALLO oral formulation for each rat contained 2 mg of parent ALLO (i.e., non-prodrug allopregnanolone) suspended in 2 ml of suspending vehicle (0.50 sodium carboxymethyl cellulose, 0.4% Tween 80 and 0.9% NaCl in water). Prodrug formulations for each rat contained 2 mg of the ALLO prodrug dispersed in 40 mg oleic acid, 25 mg Tween 80 and 2 ml PBS. Doses were normalized to a 2 mg/kg equivalent dose of ALLO. Data are shown as mean±SD n≥3 or mean±range when n=2. […] Doses are normalized to a 2 mg/kg equivalent ALLO dose and data are presented as mean±SD when n≥3 or mean±range when n=2.
Also shown (bottom) is the calculated area under the curve (AUC) over 0-24 h for each of the test compounds as a fraction of the IV-administered allpregnanolone control.

| Structure (SMILES) | hydrolysis of prodrug to its monoglyceride form [1] | hydrolysis of prodrug to its monoglyceride form [2] | hydrolysis of prodrug to its monoglyceride form [3] | Cmax [6] | other results |
| --- | --- | --- | --- | --- | --- |
| CCCCCCCCCCCCCCCC(=O)OCC(COC(=O)CCCCCCCCCCCCCCC)OC(=O)CC(C)CC(=O)OC(C)OC(=O)O[C@@H]1CC[C@@]2(C)[C@@H](CC[C@@H]3[C@@H]2CC[C@]2(C)[C@@H](C(C)=O)CC[C@@H]32)C1 (stereo partly drawn) [Compound I-2, 1-(1-(((((3R,5S,8R,9S,10S,13S,14S,17S)-17-acetyl-10,13-dimethylhexadecahydro-1H-cyclopenta[a]phenanthren-3-yl)oxy)carbonyl)oxy)ethyl) 5-(1,3-bis(palmitoyloxy)propan-2-yl) 3-methylpentanedioate] | rapidly converted to the prodrug's monoglyceride form | rapidly converted to the prodrug's monoglyceride form | rapidly converted to the prodrug's monoglyceride form | – | acid intermediate of hydrolysis ([1]; HPLC-MS): not observed; acid intermediate of hydrolysis [2]: not observed; acid intermediate of hydrolysis [3]: not observed; acid intermediate of hydrolysis [4]: not observed; hydrolysis of prodrug to its monoglyceride form ([4]; 0-180 min): rapidly converted to the prodrug's monoglyceride form |
| CCCCCCCCCCC(=O)O[C@H]1CC[C@H]2[C@@H]3CCC4=CC(=O)CC[C@]4(C)[C@H]3CC[C@]12C [testosterone undecanoate] | – | – | – | – | bioavailability of testosterone after oral administration of the undecanoate ester [5]: < 5% |
| CCCCCCCCCCCCCCCC(=O)OCC(COC(=O)CCCCCCCCCCCCCCC)OC(=O)C(C)(C)CCCCCCCCCC(=O)O[C@@H]1CC[C@@]2(C)[C@@H](CC[C@@H]3[C@@H]2CC[C@]2(C)[C@@H](C(C)=O)CC[C@@H]32)C1 [Compound I-13, 12-((3R,5S,8R,9S,10S,13S,14S,17S)-17-acetyl-10,13-dimethylhexadecahydro-1H-cyclopenta[a]phenanthren-3-yl) 1-(1,3-bis(palmitoyloxy)propan-2-yl) 2,2-dimethyldodecanedioate] | – | – | – | below LOQ) | – |
| CCCCCCCCCCCCCCCC(=O)OCC(COC(=O)CCCCCCCCCCCCCCC)OC(=O)C(C)(C)CCCCCCCC(=O)O[C@@H]1CC[C@@]2(C)[C@@H](CC[C@@H]3[C@@H]2CC[C@]2(C)[C@@H](C(C)=O)CC[C@@H]32)C1 [Compound I-12, 10-((3R,5S,8R,9S,10S,13S,14S,17S)-17-acetyl-10,13-dimethylhexadecahydro-1H-cyclopenta[a]phenanthren-3-yl) 1-(1,3-bis(palmitoyloxy)propan-2-yl) 2,2-dimethyldecanedioate] | – | – | – | below LOQ) | – |
| CCCCCCCCCCCCCCCC(=O)OCC(COC(=O)CCCCCCCCCCCCCCC)OC(=O)CCCCCCCCC(=O)O[C@@H]1CC[C@@]2(C)[C@@H](CC[C@@H]3[C@@H]2CC[C@]2(C)[C@@H](C(C)=O)CC[C@@H]32)C1 [Compound I-1, 1-((3R,5S,8R,9S,10S,13S,14S,17S)-17-acetyl-10,13-dimethylhexadecahydro-1H-cyclopenta[a]phenanthren-3-yl) 10-(1,3-bis(palmitoyloxy)propan-2-yl) decanedioate] | rapidly converted to the prodrug's monoglyceride form | rapidly converted to the prodrug's monoglyceride form | rapidly converted to the prodrug's monoglyceride form | – | – |

Source: US20210300962A1, “LIPID PRODRUGS OF PREGNANE NEU[…] USES THEREOF” (PureTech LYT, Inc., priority 2018, published 2021)
